Source: article PMC9510126, “Hydrophobicity is a key determinant in the activity of arginine-rich cell penetrating peptides” (Scientific Reports, 2022)
Ends that are not written are not given here. * marks the point of attachment. carboxyfluorescein = carboxyfluorescein fluorophore coupled to the lysine ε-amine; DEAC = CCN(CC)c1ccc2cc(C(=O)*)c(=O)oc2c1

Key:
MDA-MB-231 cells [1] = assay: Delivery of TMR-k5 probe into live cells (nuclear staining); type: cell-based, human; conditions: 1 h, biological triplicates; for TMR-k5 delivery activity (cells with TMR-k5 nuclear staining): MDA-MB-231, d(X)TAT at various concentrations + TMR-k5 20 μM, fluorescence microscopy; for d(X)TAT concentration at which delivery is achieved in a high percentage of cells: MDA-MB-231, TMR-k5 20 μM
Description: To test the relative delivery efficiency of the d(X)TAT peptides, the cell lines MDA-MB-231 (epithelial-like, human breast cancer, spindle-shaped) and Neuro-2a (mouse neuroblastoma with neuronal and amoeboid stem cell morphology) were chosen. These cell lines are routinely used in cancer research, neuroscience, and toxicology. In the context of this study, we rationalized that the distinct differences in origin and characteristics between MDA-MB-231 and Neuro-2a properties may be useful to assess the generality of the results obtained. MDA-MB-231 or Neuro-2a cells were incubated with d(X)TAT peptides at various concentrations and TMR-k5 (20 μM) for 1 h. Cells were then washed, incubated with the DNA stain Hoechst and the live/dead marker SYTOX green (or SYTOX blue), and imaged by fluorescence microscopy. The localization of TMR-k5 in individual nuclei was then assessed by measuring the overlap between TMR and Hoechst signals (Fig. 2, Figure S13). […] This is because, in our experience, dfTAT and dfTAT analogs display a threshold behavior where, below a certain endosomal concentration, endosomal leakage is not achieved. In contrast above this threshold most late endosomes are permeabilized. […] Our rationale was therefore to titrate cells with different concentrations of d(X)TAT agents, monitor how many cells display cytosolic/nuclear delivery of TMR-k5, and compare the different d(X)TAT peptides.
MDA-MB-231 and Neuro2a cells obtained from ATCC (breast cancer-derived epithelial) were cultured in humidified atmosphere at 5% CO2 and 37 °C. Cells were seeded in plastic 48-well plates (Fisher) for quantitative analysis or 8-well Labtek II plates (Fisher) for qualitative imaging at 100× magnification. The cells were grown to 80–90% confluency in a 37 °C humidified atmosphere containing 5% CO2. Cells were washed three times with Leibovitz’s L15 media (L15) (Fisher). Cells were then incubated with peptide and 20 µM of the TMR-k5 pentalysine probe at 37 °C for 1 h. This was followed by washing the cells three times with L15 supplemented with heparin (Sigma-Aldrich) (1 mg/mL) and an extra L15 wash. […] Additionally, the cell permeable dye Hoechst 33342 (Thermo Fisher Scientific o) was used for nuclear staining. Cells were imaged using an EVOS FL Auto 2 inverted microscope (Thermo Fisher Scientific). The microscope is equipped with a heating chamber maintained at 37 °C. Images were acquired using bright field imaging and five fluorescence filter sets: CFP (Ex = 436 ± 10 nm, Em = 480 ± 20 nm), RFP (Ex = 560 ± 20 nm, Em = 630 ± 35 nm), FITC (Ex = 488 ± 10 nm Em = 520 ± 20 nm), DAPI (Ex = 350 ± 50 nm, Em = 460 ± 25 nm), […]. For image viewing and processing individual images, the Celleste 4.0 software (Thermo Fisher Scientific) was used. Nuclear regions in 20× images where identified using Hoechst staining (the quantification process is described in Figure S13). The intensity of these objects in the TMR channel was then determined using the Celleste software. Cells stained by the SYTOX or DRAQ dyes were considered dead and not counted as positive for delivery. Cells displaying a nuclear TMR-k5 fluorescence above the fluorescence threshold determined for TMR-k5 alone were considered positive for delivery (if excluding SYTOX or DRAQ7 stain, and if visually showing stained nucleoli for confirmation of intracellular localization). The percentage of cells positive for TMR-k5 nuclear staining was then calculated, using Hoechst-stained cells to count the total number of cells present. […] Instead, this assay quantifies the number of cells in which the nuclear fluorescence of TMR-k5 is above a detection threshold. This threshold is dependent on the microscope, imaging conditions, and the concentration of TMR-k5 used during incubation (Figure S13). The reproducibility of all the experiments was assessed by performing experiments with independent batches of cell cultures on three different days (i.e., biological triplicates). […]

MDA-MB-231 cells [2] = assay: Staining of endosomes with LysoTracker (puncta per cell); type: cell-based, human; conditions: for lysotracker stained puncta, control agents: MDA-MB-231, LLOME 1 mM 10 min, bafilomycin 1 µM 4 h; for lysotracker-positive puncta per cell 12 h after incubation: MDA-MB-231, 1 h with peptide 1.5 μM, then 12 h in DMEM; for lysotracker stained endosomes (puncta per cell) immediately after incubation: MDA-MB-231, 1 h with peptide (X = K(Ac), WW, FFLIP at 10, 1.5, 1.5 μM), LysoTracker Green DND-26 500 nM 5 min, biological triplicates
Procedure: Given that hydrophobicity of the d(X)TAT peptides appears to contribute to their membrane permeation activities, we next sought to establish whether this relationship could be recapitulated with membrane models, i.e. lipid bilayers. To establish which membrane system to test, we first aimed to test whether d(X)TAT peptides generally recapitulate the mechanism of cell entry previously determined with dfTAT. For this purpose, the delivery of TMR-k5 was performed in cells transfected with dominant-negative (DN) rab7(T22N), a protein that disrupts trafficking from early endosomes to late endosomes[29],[30]. For these experiments, d(WW)TAT and d(FFLIP)TAT were chosen as two “high activity/hydrophobicity” d(X)TAT representatives. […] In this case, approximately 5% of cells remained positive for TMR-k5 nuclear staining. […] To further probe the cell penetration mechanism, the number of endosomal organelles stained by Lysotracker in cells before and after delivery was quantified. The rationale behind this assay is that lysotracker accumulates in acidified organelles, typically late endosomes and lysosomes, that endosomal membrane leakage causes an increase of endosomal pH (presumably via leakage of luminal H^+ into the cytosol), and that, consequently, endosomes rendered potentially leaky by d(X)TAT peptides will not be stained by lysotracker.
For the quantification of acidic vesicles, cells were treated with LysoTracker Green DND-26 (500 nM) for 5 min. Alternatively, cells were pretreated with L-Leu-L-Leu methyl ester (LLOME; Sigma-Aldrich) incubated at 1 mM for 10 min, or bafilomycin (Sigma-Aldrich) at 1 µM for 4 h, and then stained with LysoTracker. Likewise, cells were pretreated with d(X)TAT peptides (X = K(Ac), WW, or FFLIP at 10, 1.5, and 1.5 μM) for 1 h. Cells were then washed an stained with LysoTracker immediately or after 12 h incubation in DMEM. For all conditions, fluorescence microscopy images were acquired using the 100× objective on an Olympus IX-81 microscope. ImageJ was used to calculate the number of LysoTracker-stained puncta per cell, as well as the area of each individual puncta. This analysis was performed for 50 cells imaged for each condition and reproduced in biological triplicates.

[3] = RP-18 TLC hydrophobicity (1-Rf) of Ac-X-NH2 analogs; type: physicochemical; conditions: RP18 TLC, 40% acetonitrile / 60% PBS (10 mM phosphate buffer), pH 4 vs pH 8
Procedure: In order to assess the hydrophobicity contributed by each X group, the peptides were first analyzed by reverse phase HPLC using a C18 column, using gradients of buffer A (water/TFA 99.9:0.1) and buffer B (acetonitrile/water/TFA 89.9:10:0.1 v:v:v) (gradient of 0–40% B over 20 min). […] All d(X)TAT peptides eluted over a range of 10–35% acetonitrile. […] One caveat of this approach is that the buffer system used for peptide analysis is pH 2 (due to the presence of TFA, required to protonate residue side chains). However, pH 2 is not representative of the pH that CPPs may be exposed to when in contact with cells, either pH 7.2 outside the plasma membrane, or pH between 6.5 and 4.5 while inside acidic endosomes. In order to establish the relative hydrophobicities of d(X)TAT peptides at these pHs, we sought to use other techniques, including thin layer chromatography using C18, aluminum oxide or silica stationary phases. Unfortunately, the arginine-rich peptides could not be separated on these systems. To solve this problem, each individual X group was synthesized, using acetylated and amidated N and C-terminal positions to mimic the peptide backbone found in the d(X)TAT constructs (Fig. 1A, Figure S11). Each Ac-X-NH2 group was analyzed by HPLC and by RP18 TLC, using 40% acetonitrile and 60% PBS as mobile phase. The HPLC elutions of Ac-X-NH2 correlated with the HPLC elutions of their respective d(X)TAT counterparts (Fig. 1C). Similarly, the relative hydrophobicities of Ac-X-NH2 determined by TLC (measured as 1-Rf) at pH 4 or 8 were in good agreement with the results obtained by HPLC (Fig. 1D). […] In the case of DEAC, the protonation state of the fluorophore has, to our knowledge, not been characterized.
Hydrophobic substituents (10 µL) were developed on aluminum-backed F254 RP-18 TLC plates (EMD Millipore). Plates were cut into 6 cm × 6 cm squares and developed in 40% acetonitrile/60% 10 mM phosphate buffer first along one axis at pH 2.0, then along the second axis at pH 7.4. Peptide substituents that could not be easily identified under long-wave UV light were stained with iodine for 10–20 min. Retention factors (Rf) were calculated based on the distance traveled by each compound between the starting spotted location and the final solvent front location.

Neuro-2a cells = assay: Delivery inhibition with dominant negative rab7 or CytoD; type: cell-based, mouse; conditions: for cells with TMR-k5 delivery, EGFP-DN-rab7 transfected / nuclear staining of delivered TMR-k5 in cells transfected with EGFP-DN-rab7: Neuro-2a (Fig. 4A), TMR-k5 20 μM, 1 h; for nuclear staining of delivered TMR-k5 in cells transfected with EGFP-DN-rab7: biological triplicates; for cells positive for TMR-k5 nuclear staining in the presence of cytochalasin D / delivery of TMR-k5 in the presence of cytochalasin D: cytoD 20 μM, 30 min pre-incubation and present during 1 h delivery

d(Y)TAT: disulfide dimer of CXRKKRRQRRRG with X = Y (CYRKKRRQRRRG-NH2; also: disulfide dimer)
TMR-k5 delivery activity (cells with TMR-k5 nuclear staining) (MDA-MB-231 cells [1]): little to no TMR-k5 delivery is detected

d(K(Fl))TAT: disulfide dimer of CXRKKRRQRRRG with X = lysine conjugated to carboxyfluorescein (CK(carboxyfluorescein)RKKRRQRRRG-NH2; also: disulfide dimer)
d(X)TAT concentration at which delivery is achieved in a high percentage of cells (MDA-MB-231 cells [1]): > 5 µM

d(F)TAT: disulfide dimer of CXRKKRRQRRRG with X = F (CFRKKRRQRRRG-NH2; also: disulfide dimer)
TMR-k5 delivery activity (cells with TMR-k5 nuclear staining) (MDA-MB-231 cells [1]): little to no TMR-k5 delivery is detected

d(K(DEAC))TAT: disulfide dimer of CXRKKRRQRRRG with X = lysine conjugated to 7-diethylaminocoumarin-3-carboxylic acid (CK(DEAC)RKKRRQRRRG-NH2; also: disulfide dimer)
d(X)TAT concentration at which delivery is achieved in a high percentage of cells (MDA-MB-231 cells [1]): < 3 µM

COC(=O)[C@H](CC(C)C)NC(=O)[C@@H](N)CC(C)C [LLOME, L-Leucine-L-Leucine methyl ester, reference compound]
lysotracker stained puncta, control agents (MDA-MB-231 cells [2]): reduced the number of lysotracker stained puncta

d(YFIL)TAT: disulfide dimer of CXRKKRRQRRRG with X = YFIL
d(X)TAT concentration at which delivery is achieved in a high percentage of cells (MDA-MB-231 cells [1]): < 3 µM

CC(=O)N[C@@H](Cc1c[nH]c2ccccc12)C(N)=O [Ac-W-NH2]
pH dependence of TLC retention (1-Rf) [3]: independent of pH

d(FFLIP)TAT: disulfide dimer of CXRKKRRQRRRG with X = FFLIP (penetration accelerating sequence, Pas)
lysotracker-positive puncta per cell 12 h after incubation (MDA-MB-231 cells [2]): restored to control level | lysotracker stained endosomes (puncta per cell) immediately after incubation (MDA-MB-231 cells [2]): caused a reduction in lysotracker stained endosomes | cells with TMR-k5 delivery, EGFP-DN-rab7 transfected (Neuro-2a cells): 20% | nuclear staining of delivered TMR-k5 in cells transfected with EGFP-DN-rab7 (Neuro-2a cells): markedly reduced | cells positive for TMR-k5 nuclear staining in the presence of cytochalasin D (Neuro-2a cells): approximately 5% | delivery of TMR-k5 in the presence of cytochalasin D (Neuro-2a cells): significantly reduced | d(X)TAT concentration at which delivery is achieved in a high percentage of cells (MDA-MB-231 cells [1]): < 3 µM

d(LL)TAT: disulfide dimer of CXRKKRRQRRRG with X = LL
d(X)TAT concentration at which delivery is achieved in a high percentage of cells (MDA-MB-231 cells [1]): > 5 µM

CO/C1=C\C(C)=C\[C@@H](C)[C@@H](O)[C@@H](C)C/C(C)=C/C=C/[C@H](OC)[C@@H]([C@@H](C)[C@@H](O)[C@H](C)[C@@]2(O)C[C@@H](O)[C@H](C)[C@@H](C(C)C)O2)OC1=O [bafilomycin, reference compound]
lysotracker stained puncta, control agents (MDA-MB-231 cells [2]): reduced the number of lysotracker stained puncta

CC(=O)N[C@@H](Cc1ccccc1)C(N)=O [Ac-F-NH2]
pH dependence of TLC retention (1-Rf) [3]: independent of pH

d(W)TAT: disulfide dimer of CXRKKRRQRRRG with X = W (CWRKKRRQRRRG-NH2; also: disulfide dimer)
TMR-k5 delivery activity (cells with TMR-k5 nuclear staining) (MDA-MB-231 cells [1]): little to no TMR-k5 delivery is detected

CCN(CC)c1ccc2cc(C(=O)NCCCCC(NC(C)=O)C(N)=O)c(=O)oc2c1 (stereo not drawn) [Ac-K(DEAC)-NH2]
pH dependence of TLC retention (1-Rf) [3]: higher hydrophobicity at pH 4 than at pH 8

d(WW)TAT: disulfide dimer of CXRKKRRQRRRG with X = WW
lysotracker-positive puncta per cell 12 h after incubation (MDA-MB-231 cells [2]): restored to control level | lysotracker stained endosomes (puncta per cell) immediately after incubation (MDA-MB-231 cells [2]): caused a reduction in lysotracker stained endosomes | cells with TMR-k5 delivery, EGFP-DN-rab7 transfected (Neuro-2a cells): 20% | nuclear staining of delivered TMR-k5 in cells transfected with EGFP-DN-rab7 (Neuro-2a cells): markedly reduced | cells positive for TMR-k5 nuclear staining in the presence of cytochalasin D (Neuro-2a cells): approximately 5% | delivery of TMR-k5 in the presence of cytochalasin D (Neuro-2a cells): significantly reduced | d(X)TAT concentration at which delivery is achieved in a high percentage of cells (MDA-MB-231 cells [1]): < 3 µM

CC(=O)N[C@@H](Cc1ccc(O)cc1)C(N)=O [Ac-Y-NH2]
pH dependence of TLC retention (1-Rf) [3]: independent of pH
